How the values were obtained:
Experiment in all cases: combination Emax (second highest fraction inhibited in the dose matrix, 72 h); higher = more inhibition; extreme values may be limits of the assay
[1] = test system: VAL (B-Cell Non-Hodgkin's Lymphoma)
Summary of the method: (§1)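 Cell lines in DMEM/F12 or RPMI with 10% FBS were plated in 1536-well plates, held 24 hours at 37°C, 5% CO2, then given two-drug dose matrices for 72 hours (DMSO typically 0.2%). Viability was read by CellTiter-Glo 2.0 luminescence and scaled as inhibition from 0 (vehicle wells) to 1 (blank wells). Combination Emax is the second-highest inhibition in the matrix; Bliss excess is observed combination effect minus expected EA + EB − EA·EB, EA and EB being single-agent effects.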

[2] = test system: CAL-120 (Breast Carcinoma)
Summary of the method: as §1

[3] = test system: HSC-39 (Gastric Carcinoma)
Summary of the method: as §1

[4] = test system: LK-2 (Squamous Cell Lung Carcinoma)
Summary of the method: as §1

[5] = test system: KE-37 (T-Lymphoblastic Leukemia)
Summary of the method: as §1

[6] = test system: PC-3_[JPC-3] (Lung Adenocarcinoma)
Summary of the method: as §1

[7] = test system: SF268 (Low Grade Glioma)
Summary of the method: as §1

[8] = test system: 23132-87 (Gastric Carcinoma)
Summary of the method: as §1

[9] = test system: RERF-GC-1B (Gastric Carcinoma)
Summary of the method: as §1

[10] = test system: IST-MES1 (Mesothelioma)
Summary of the method: as §1

[11] = test system: MKN45 (Gastric Carcinoma)
Summary of the method: as §1

[12] = test system: REH (B-Lymphoblastic Leukemia)
Summary of the method: as §1

[13] = test system: FADU (Head and Neck Carcinoma)
Summary of the method: as §1

[14] = test system: RCM-1 (Colorectal Carcinoma)
Summary of the method: as §1

[15] = test system: RERF-LC-Sq1 (Squamous Cell Lung Carcinoma)
Summary of the method: as §1

[16] = test system: GP5d (Colorectal Carcinoma)
Summary of the method: as §1

[17] = test system: MFE-280 (Endometrial Carcinoma)
Summary of the method: as §1

[18] = test system: HEC-1 (Endometrial Carcinoma)
Summary of the method: as §1

[19] = test system: NCI-H2342 (Lung Adenocarcinoma)
Summary of the method: as §1

[20] = test system: PSN1 (Pancreatic Carcinoma)
Summary of the method: as §1

Row | Compound | combination Emax [1] | combination Emax [2] | combination Emax [3] | combination Emax [4] | combination Emax [5] | combination Emax [6] | combination Emax [7] | combination Emax [8] | combination Emax [9] | combination Emax [10] | combination Emax [11] | combination Emax [12] | combination Emax [13] | combination Emax [14] | combination Emax [15] | combination Emax [16] | combination Emax [17] | combination Emax [18] | combination Emax [19] | combination Emax [20]
1 | CN(C)CCCOc1ccc(-c2ccc3ncc4c(c3c2)n(C2CCOCC2)c(=O)n4C)cn1 [AZD0156] + C[C@@H]1COCCN1C2=NC(=NC(=C2)C3(CC3)[S@](=N)(=O)C)C4=C5C=CNC5=NC=C4 [AZD6738] (first compound max 1 µM, 7x7, partner max 10 µM) | 0.911 | 0.437 | 1 | 0.501 | 1 | 0.329 | 0.497 | 0.873 | 0.491 | 0.176 | 0.791 | 0.625 | 0.758 | 0.864 | 0.843 | 0.883 | 0.335 | 0.363 | 0.166 | 0.504
2 | CC(=O)Nc1cccc(-n2c(=O)n(C3CC3)c(=O)c3c(Nc4ccc(I)cc4F)n(C)c(=O)c(C)c32)c1 [Trametinib] + Cc1nc(-c2cn3c(n2)-c2ccc(-c4cnn(C(C)(C)C(N)=O)c4)cc2OCC3)n(C(C)C)n1 [Taselisib] (first compound max 1 µM, 7x7, partner max 10 µM) | 0.424 | 0.564 | 1 | 0.608 | 0.676 | 0.882 | 0.484 | 0.636 | 0.949 | 0.434 | 0.799 | 0.544 | 0.837 | 0.871 | 0.981 | 0.907 | 0.939 | 0.346 | 0.5 | 0.946
3 | COc1cccc(OCCCN)c1-c1cc(Nc2cnc(C#N)cn2)n[nH]1 [Prexasertib] + O=C(c1cc(Cc2n[nH]c(=O)c3ccccc23)ccc1F)N1CCN(C(=O)C2CC2)CC1 [Olaparib] (first compound max 1 µM, 7x7, partner max 10 µM) | 0.93 | 0.526 | 1 | 0.799 | 1 | 0.31 | 0.623 | 0.87 | 0.552 | 0.283 | 0.854 | 0.987 | 0.897 | 0.596 | 0.833 | 0.945 | 0.416 | 0.416 | 0.302 | 0.456
4 | Cc1cc2ncnn2cc1Nc1ncc2c(n1)n(C1CCOCC1)c(=O)n2C [AZD7648] + CN(C)CCCOc1ccc(-c2ccc3ncc4c(c3c2)n(C2CCOCC2)c(=O)n4C)cn1 [AZD0156] (first compound max 10 µM, 7x7, partner max 1 µM) | 0.53 | 0.414 | 0.215 | 0.269 | 0.659 | 0.31 | 0.187 | 0.0669 | 0.29 | 0.239 | 0.428 | 0.258 | 0.111 | 0.201 | 0.197 | 0.293 | 0.359 | 0.002 | 0.249 | 0.38
5 | CN(CCO)CC[C@H](CSc1ccccc1)Nc1ccc(S(=O)(=O)NC(=O)c2ccc(N3CCC([C@@H](O)c4ccccc4-c4ccc(Cl)cc4)CC3)cc2)cc1S(=O)(=O)C(F)(F)F [AZD4320] + Cn1cnc2c(F)c(Nc3ccc(Br)cc3Cl)c(C(=O)NOCCO)cc21 [Selumetinib] (first compound max 1 µM, 7x7, partner max 3 µM) | 1 | 0.8 | 0.57 | 0.699 | 1 | 0.571 | 0.69 | 0.615 | 0.716 | 0.257 | 0.511 | 0.992 | 0.832 | 0.785 | 0.49 | 0.9 | 0.705 | 0.366 | 0.423 | 0.664
6 | Cn1cnc2c(F)c(Nc3ccc(Br)cc3Cl)c(C(=O)NOCCO)cc21 [Selumetinib] + CC(C)n1c(=O)n(C)c2cnc3cc(F)c(-c4ccc(OCCCN5CCCCC5)nc4)cc3c21 [AZD1390] (first compound max 10 µM, 7x7, partner max 0.3 µM) | 0.0806 | 0.112 | 0.201 | 0.49 | 0.303 | 0.159 | 0.139 | 0.0937 | 0.368 | 0.183 | 0.61 | 0.0781 | 0.271 | 0.616 | 0.402 | 0.683 | 0.17 | 0.0424 | 0.0339 | 0.738
